Source: publication PMC6658998, “Pharmacological characterization of the seven human NOX isoforms and their inhibitors” (Redox Biology, 2019)

Key:
[1] = in vitro; conditions: human
[2] = in vitro; conditions: Chinese hamster
[3] = biological target: T1, DUOX2 (Homo sapiens, UniProt Q9NRD8); assay: Amplex Red/HRP H2O2 detection in DUOX2-expressing HEK293 cells; format: cell-based; conditions: PMA 0.1 μM and ionomycin 1 μM, read-out: IC50 DUOX2 (HEK) AR
T1 construct: expressed in transfected cells; host or cells: HEK293, selected with G418 and zeocin
T1 sequence (Q9NRD8 26-1548): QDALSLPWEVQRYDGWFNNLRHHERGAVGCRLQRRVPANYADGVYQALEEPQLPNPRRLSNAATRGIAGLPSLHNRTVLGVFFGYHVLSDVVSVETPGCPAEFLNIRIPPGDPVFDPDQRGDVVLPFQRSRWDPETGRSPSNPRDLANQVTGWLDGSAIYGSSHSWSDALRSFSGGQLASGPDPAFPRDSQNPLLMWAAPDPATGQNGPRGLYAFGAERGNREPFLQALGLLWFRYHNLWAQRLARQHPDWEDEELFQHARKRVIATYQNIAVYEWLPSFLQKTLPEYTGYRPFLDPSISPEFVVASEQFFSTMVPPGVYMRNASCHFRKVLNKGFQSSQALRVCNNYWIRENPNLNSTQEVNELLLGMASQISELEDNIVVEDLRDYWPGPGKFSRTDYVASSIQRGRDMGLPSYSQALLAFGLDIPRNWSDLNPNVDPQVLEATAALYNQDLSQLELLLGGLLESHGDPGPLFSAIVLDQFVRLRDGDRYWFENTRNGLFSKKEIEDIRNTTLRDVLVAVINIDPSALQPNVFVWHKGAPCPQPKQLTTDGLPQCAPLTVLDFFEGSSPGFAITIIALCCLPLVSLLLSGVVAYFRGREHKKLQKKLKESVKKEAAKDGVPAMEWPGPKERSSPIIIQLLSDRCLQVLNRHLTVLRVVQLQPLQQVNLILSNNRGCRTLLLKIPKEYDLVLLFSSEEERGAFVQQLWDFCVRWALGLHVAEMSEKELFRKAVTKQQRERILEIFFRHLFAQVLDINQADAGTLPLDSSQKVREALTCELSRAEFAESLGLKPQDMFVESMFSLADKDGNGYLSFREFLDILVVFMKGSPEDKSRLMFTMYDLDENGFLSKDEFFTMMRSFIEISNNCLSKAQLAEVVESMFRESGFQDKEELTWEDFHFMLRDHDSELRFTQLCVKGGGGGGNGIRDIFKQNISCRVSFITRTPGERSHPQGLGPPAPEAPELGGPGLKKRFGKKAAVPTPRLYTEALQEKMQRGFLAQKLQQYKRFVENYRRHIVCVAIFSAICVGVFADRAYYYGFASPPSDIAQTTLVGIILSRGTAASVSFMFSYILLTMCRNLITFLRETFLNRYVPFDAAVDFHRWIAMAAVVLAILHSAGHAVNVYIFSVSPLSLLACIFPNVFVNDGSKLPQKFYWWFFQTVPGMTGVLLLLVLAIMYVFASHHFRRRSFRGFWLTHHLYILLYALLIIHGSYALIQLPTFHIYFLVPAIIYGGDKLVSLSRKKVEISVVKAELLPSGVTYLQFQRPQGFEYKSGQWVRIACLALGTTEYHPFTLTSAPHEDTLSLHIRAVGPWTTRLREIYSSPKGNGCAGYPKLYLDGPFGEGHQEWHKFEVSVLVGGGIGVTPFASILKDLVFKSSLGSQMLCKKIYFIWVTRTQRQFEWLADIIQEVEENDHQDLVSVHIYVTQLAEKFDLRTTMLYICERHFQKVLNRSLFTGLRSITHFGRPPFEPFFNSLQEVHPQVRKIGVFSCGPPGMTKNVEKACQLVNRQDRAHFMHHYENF
T1 sequence (Q1HG44 whole entry partner): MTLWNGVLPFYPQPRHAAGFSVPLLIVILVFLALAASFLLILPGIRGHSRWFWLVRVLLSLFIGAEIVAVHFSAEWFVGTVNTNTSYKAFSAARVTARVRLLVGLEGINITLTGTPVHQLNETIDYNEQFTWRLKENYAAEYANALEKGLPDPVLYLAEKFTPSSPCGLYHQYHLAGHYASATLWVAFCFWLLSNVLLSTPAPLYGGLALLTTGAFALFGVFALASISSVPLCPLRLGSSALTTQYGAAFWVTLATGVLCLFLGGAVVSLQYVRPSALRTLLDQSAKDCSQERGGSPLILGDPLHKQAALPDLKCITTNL

[4] = biological target: T2, NOX5 (Homo sapiens, UniProt Q96PH1); assay: Amplex Red/HRP H2O2 detection in NOX5-expressing HEK293 cells; format: cell-based; conditions: PMA 0.1 μM and ionomycin 1 μM, read-out: IC50 NOX5 (HEK) AR
T2 construct: expressed in transfected cells
T2 sequence (Q96PH1 19-737 isoform Q96PH1-3 limits assumed): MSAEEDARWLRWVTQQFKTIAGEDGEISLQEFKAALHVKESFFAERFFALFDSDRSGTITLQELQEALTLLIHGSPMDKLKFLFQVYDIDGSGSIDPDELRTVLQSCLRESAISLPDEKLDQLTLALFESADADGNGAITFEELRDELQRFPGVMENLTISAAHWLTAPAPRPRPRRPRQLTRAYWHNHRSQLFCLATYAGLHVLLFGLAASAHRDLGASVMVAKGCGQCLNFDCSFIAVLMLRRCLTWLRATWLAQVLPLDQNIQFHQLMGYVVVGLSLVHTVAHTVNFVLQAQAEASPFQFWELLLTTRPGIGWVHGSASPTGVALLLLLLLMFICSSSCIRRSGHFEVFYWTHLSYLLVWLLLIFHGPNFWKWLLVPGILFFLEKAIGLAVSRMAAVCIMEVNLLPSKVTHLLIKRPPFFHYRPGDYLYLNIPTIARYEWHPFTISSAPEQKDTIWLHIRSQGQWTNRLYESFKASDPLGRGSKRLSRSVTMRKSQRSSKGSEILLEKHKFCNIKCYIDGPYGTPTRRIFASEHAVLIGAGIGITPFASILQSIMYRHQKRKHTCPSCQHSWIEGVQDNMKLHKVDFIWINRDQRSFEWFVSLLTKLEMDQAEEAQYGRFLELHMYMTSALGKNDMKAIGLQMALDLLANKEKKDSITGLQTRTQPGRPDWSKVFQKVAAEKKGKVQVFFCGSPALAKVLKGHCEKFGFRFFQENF

[5] = biological target: T3, human NOX1 (Homo sapiens, UniProt Q9Y5S8); assay: WST-1 O2•- detection in NOX1-expressing CHO cells; format: cell-based; conditions: WST-1, PMA 0.1 μM
T3 construct: expressed in transfected cells; host or cells: CHO
T3 sequence (Q9Y5S8 1-564): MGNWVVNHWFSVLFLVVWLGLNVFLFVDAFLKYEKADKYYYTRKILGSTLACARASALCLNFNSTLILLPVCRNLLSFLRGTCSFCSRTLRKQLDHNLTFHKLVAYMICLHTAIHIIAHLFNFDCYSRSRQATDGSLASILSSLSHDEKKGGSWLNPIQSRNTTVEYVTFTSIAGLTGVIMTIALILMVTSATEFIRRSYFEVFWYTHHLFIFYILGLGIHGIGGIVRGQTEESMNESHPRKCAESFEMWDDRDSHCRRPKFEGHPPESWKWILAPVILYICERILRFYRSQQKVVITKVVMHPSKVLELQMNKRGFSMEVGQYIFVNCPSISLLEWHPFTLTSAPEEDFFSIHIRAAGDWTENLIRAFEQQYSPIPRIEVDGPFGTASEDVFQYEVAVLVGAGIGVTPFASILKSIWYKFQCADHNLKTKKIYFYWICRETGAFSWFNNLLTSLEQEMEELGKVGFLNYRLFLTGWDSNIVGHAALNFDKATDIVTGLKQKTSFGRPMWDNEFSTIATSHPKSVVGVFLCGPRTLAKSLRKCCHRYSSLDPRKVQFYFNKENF
T3 sequence (P13498 1-195 partner): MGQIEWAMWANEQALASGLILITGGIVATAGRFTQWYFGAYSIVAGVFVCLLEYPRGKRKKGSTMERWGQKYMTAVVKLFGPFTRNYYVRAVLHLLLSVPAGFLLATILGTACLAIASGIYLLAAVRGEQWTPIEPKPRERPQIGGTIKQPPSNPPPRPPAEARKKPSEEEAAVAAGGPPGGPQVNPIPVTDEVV

[6] = biological target: T3, human NOX1; assay: Amplex Red/HRP H2O2 detection in NOX1-expressing CHO cells; format: cell-based; conditions: PMA 0.1 μM, read-out: IC50 NOX1 (CHO) AR
[7] = biological target: T4, NOX2 (Homo sapiens, UniProt P04839); assay: Amplex Red/HRP H2O2 detection in differentiated PLB-985 cells (NOX2)
T4 sequence (P04839 2-570 limits assumed): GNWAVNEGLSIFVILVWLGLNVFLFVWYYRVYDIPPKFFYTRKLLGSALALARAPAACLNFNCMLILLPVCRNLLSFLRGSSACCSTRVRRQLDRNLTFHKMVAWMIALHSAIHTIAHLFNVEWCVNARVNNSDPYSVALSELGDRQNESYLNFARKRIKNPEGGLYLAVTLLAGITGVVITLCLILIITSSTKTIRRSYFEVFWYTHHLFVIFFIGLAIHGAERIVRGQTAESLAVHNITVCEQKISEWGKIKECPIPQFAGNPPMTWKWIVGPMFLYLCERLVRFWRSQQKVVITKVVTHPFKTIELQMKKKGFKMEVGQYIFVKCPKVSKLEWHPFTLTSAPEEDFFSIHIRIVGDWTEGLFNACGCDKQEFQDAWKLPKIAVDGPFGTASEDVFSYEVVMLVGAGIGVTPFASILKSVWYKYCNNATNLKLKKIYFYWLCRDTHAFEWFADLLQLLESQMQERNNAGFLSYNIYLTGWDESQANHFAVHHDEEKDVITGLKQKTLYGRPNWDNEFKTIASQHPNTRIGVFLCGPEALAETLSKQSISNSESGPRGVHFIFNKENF
T4 sequence (P13498 1-195 partner): T3 sequence (P13498 1-195 partner)

[8] = biological target: T4, NOX2; assay: WST-1 O2•- detection in differentiated PLB-985 cells (NOX2)

Row | IC50 [3] [µM] | IC50 [4] [µM] | IC50 [5] [µM] | IC50 [6] [µM] | IC50 [7] [µM] | IC50 [8] [µM] | Compound | CC50 at 1 h [1] [µM] | CC50 at 1 h [2] [µM] | CC50 at 1 h ([1]; HEK/T-REx cells) [µM] | CC50 at 1 h ([2]; CHO cells) [µM]
1 | > 50 | > 50 | > 50 | > 50 | > 50 | > 50 | COc1cc(C(C)=O)ccc1O [Apocynin, apocynin] | > 50 | > 50 |  | 
2 | 21.7 | 16.6 | > 50 | 32.7 | 38.9 | > 50 | COc1cc(C(C)=O)cc(-c2cc(C(C)=O)cc(OC)c2O)c1O [Diapocynin, diapocynin] |  |  | > 50 | > 50
3 | 9.8 | 8 | > 50 | 9.2 | 12.2 | > 50 | Cc1c2c(=O)n(-c3ccccc3Cl)[nH]c2cc(=O)n1Cc1ccccn1 [GKT136901] |  |  | > 50 | > 50

Further lines, the compound ahead of its results:

Row | Compound | IC50 [3] [µM] | IC50 [4] [µM] | IC50 [5] [µM] | IC50 [6] [µM] | IC50 [7] [µM] | IC50 [8] [µM] | CC50 at 1 h [1] [µM] | CC50 at 1 h [2] [µM] | CC50 at 1 h ([1]; HEK/T-REx cells) [µM] | CC50 at 1 h ([2]; CHO cells) [µM]
4 | c1ccc2c(c1)[I+]c1ccccc1-2 [DPI, diphenylene iodonium chloride] |  |  |  |  |  |  | > 50 | > 50 |  | 
5 | O=c1c2ccccc2[se]n1-c1ccccc1 [Ebselen, ebselen] | 4.2 | 2.1 | 31.6 | 2.9 |  |  |  |  | 1.8 | 3.3
